Here are results for 75 compounds from PubChem BioAssay AID1996.

Molecules are shown by their SMILES. Converted amounts (≈) assume the structure as drawn.

Broadly, the solubility (kinetic) is the concentration staying in solution when a stock, usually in DMSO, is diluted into the medium.

For this series the following is noted: buffer; pH 7.4; 200.0 µM.
`Cc1ccc(/C=C/C(=O)NC2CCS(=O)(=O)C2)cc1` (stereo not given) gave a solubility (kinetic) of 40.2 µg/mL (≈ 144 µM). `Cc1ccc(N(CC(=O)Nc2c(C)cccc2C)S(C)(=O)=O)cc1` had a solubility (kinetic) of 35.1 µg/mL (≈ 101 µM).

With `O=C(Cc1cccs1)NC1CCCC1`, the kinetic solubility was greater than 31.4 µg/mL. With `Cc1ccc(-n2c(=O)[nH]c3ncccc3c2=O)cc1`, the kinetic solubility came out at 6.9 µg/mL (≈ 27.2 µM).

For the compound `N#Cc1ccc(OCC(=O)Nc2ccc(N3CCCC3)cc2)cc1`, the solubility (kinetic) is 5.9 µg/mL (≈ 18.4 µM).

`CCc1noc(C)c1C(=O)NCCc1ccc(S(N)(=O)=O)cc1` had a kinetic solubility greater than 50.6 µg/mL.

`CCCC1CCC(c2ccc(/C(N)=N/O)cc2)CC1` (stereo not given) registered a kinetic solubility of less than 0.3 µg/mL. Next, `Cc1cc(Cl)ccc1NC(=S)NC(C)(C)C`: 28.3 µg/mL (≈ 110 µM). Regarding `C=CCn1c(SCC#N)nnc1-c1ccc2ncccc2c1`, the kinetic solubility was greater than 46.1 µg/mL. Next, `COC(=O)/C(=C\C=C\c1ccccc1)NC(=O)c1ccccc1`: 6.3 µg/mL (≈ 20.5 µM); `O=C1c2ccccc2S(=O)(=O)N1Cc1c(F)cccc1Cl`: less than 0.7 µg/mL. As for `O=C(Nc1ccccc1C(F)(F)F)c1cc2ccccc2o1`, the kinetic solubility was less than 0.7 µg/mL. Take `COc1ccccc1NC(=O)Nc1ccccc1C#N`: the solubility (kinetic) was found to be 24.8 µg/mL (≈ 92.8 µM).

On to `Cc1ccccc1-c1noc(CNC(=O)COc2ccccc2)n1`, for which the kinetic solubility was 7.7 µg/mL (≈ 23.8 µM). Next, `CN1C(=O)/C(=C/C=C2\SCCN2C)OC1=S`: 4.4 µg/mL (≈ 17.2 µM); `Cc1ccc(C)c(NC(=O)CN(C)C(=O)c2ccc(Cl)nc2)c1`: greater than 49.8 µg/mL. Next, `CN(C)c1ccc(NC(=O)CN2CCN(c3ccc(F)cc3)CC2)cc1`: 2.5 µg/mL (≈ 7.01 µM). `CCc1ccc(NC(=O)COc2ccc3c(c2)OCO3)cc1` registered a kinetic solubility of 4.8 µg/mL (≈ 16 µM). Compound `CCCCC(=O)N1CC(=O)Nc2ccc(F)cc2C1c1ccccc1` (stereo not given) had a solubility (kinetic) greater than 51.1 µg/mL.

The compound `Cc1cc(N2CCN(C)CC2)nc2ccccc12` came in with a kinetic solubility of 32.9 µg/mL (≈ 136 µM). Next, `O=c1[nH]cc(N(CCO)CCO)c(=O)[nH]1`: greater than 32.3 µg/mL; `CCC(=O)Nc1ccc(OCC2CCCO2)cc1` (stereo not given): 35.6 µg/mL (≈ 143 µM); `CCC(=O)Nc1ccc2c(c1)ncn2-c1ccccc1C`: greater than 41.9 µg/mL. Next, `COc1cccc(C2CCCCN(C)C2=O)c1` (stereo not given): 32.7 µg/mL (≈ 140 µM); `COc1ccc(NS(=O)(=O)c2ccc3oc(=O)ccc3c2)cc1`: greater than 49.7 µg/mL.

As to `O=[N+]([O-])c1ccc(CNc2ccc(Cl)cc2)s1`, the solubility (kinetic) was 6.5 µg/mL (≈ 24.2 µM).

For the compound `COC(=O)Cc1c(O)ccn(Cc2ccc(OC)c(OC)c2)c1=O`, the kinetic solubility is greater than 50 µg/mL. The compound `O=C(Cn1cnc([N+](=O)[O-])c1)NCCc1ccccc1` came in with a solubility (kinetic) greater than 41.1 µg/mL. For the compound `O=C(O)c1cc([N+](=O)[O-])ccc1NCc1ccccc1Cl`, the solubility (kinetic) stood at 45 µg/mL (≈ 147 µM). The value for `Cc1ccccc1S(=O)(=O)Cc1ccc(C(=O)NC2CC2)o1` was greater than 47.9 µg/mL. Next, `O=C(c1cccs1)N1CCN(c2ccc([N+](=O)[O-])cc2F)CC1`: 4.7 µg/mL (≈ 14 µM); `COc1ccc(S(=O)(=O)N2CCN(c3ccccn3)CC2)c(OC)c1`: 52.1 µg/mL (≈ 143 µM); `Cc1ccc(CC2CC(=O)N(c3nc(C)cc(C)n3)C2=O)cc1` (stereo not given): greater than 46.4 µg/mL. The value for `CC(=O)C1=C(C)NC(SCC(N)=O)=C(C#N)C1c1ccco1` (stereo not given) was greater than 47.6 µg/mL; that for `COc1cc(C(=O)N2C(=O)CCC2=O)cc(OC)c1OC` was 35.4 µg/mL (≈ 121 µM).

As for `CC1(N(O)/C=C2\C=CC=CC2=O)CCCCC1=O` (stereo not given), the solubility (kinetic) was greater than 37.1 µg/mL. The value for `Cc1noc(C(=O)Nc2cccnc2Cl)c1Cl` was greater than 40.8 µg/mL; that for `O=C(/C=C/c1ccco1)Nc1nc(-c2ccc(F)c(F)c2)cs1` was less than 0.4 µg/mL; that for `O=c1c2ccccc2nc2n1CCO2` was greater than 28.2 µg/mL. Next, `CN(C)c1ccc(NC(=O)Nc2csc3ccccc23)cc1`: 0.7 µg/mL (≈ 2.25 µM); `CCCCCOc1ccccc1C(=O)NCCCCCC(=O)O`: greater than 48.2 µg/mL. Next, `O=C(NCCCn1ccnc1)c1ccc(-c2cccc(Cl)c2Cl)o1`: 48.1 µg/mL (≈ 132 µM); `O=C(O)CCC(=O)NN1C(=O)c2ccccc2NC1c1ccc(F)cc1` (stereo not given): greater than 53.6 µg/mL; `CC(C)CNc1nc(N)c([N+](=O)[O-])c(N2CCCCCC2)n1`: 4.5 µg/mL (≈ 14.6 µM). On to `O=S(=O)(CCN1CCSCC1)c1ccccc1`, for which the solubility (kinetic) stood at 34.7 µg/mL (≈ 128 µM).

In turn, `CC(=O)Nc1ccc(NC(=O)COC(=O)Cn2cnc3ccccc32)cc1` returned a solubility (kinetic) greater than 55 µg/mL. `COc1ccc(Cn2c(=O)oc3ccccc32)cc1F` gave a solubility (kinetic) of 1.1 µg/mL (≈ 4.03 µM).

In the case of `Cc1ccc(CCC(=O)Nc2ccc(N(C)C)cc2)o1`, the solubility (kinetic) was determined as 17.5 µg/mL (≈ 64.3 µM).

The compound `COc1ccc(CCN(C)C(=O)c2cnc(C)cn2)cc1OC` registered a kinetic solubility of 38.1 µg/mL (≈ 121 µM). The value for `CS(=O)(=O)N1CCN(Cc2ccc([N+](=O)[O-])cc2)CC1` was greater than 44.9 µg/mL; that for `CC(=O)c1csc(Nc2ccccc2Cl)n1` was 32.8 µg/mL (≈ 130 µM); that for `Cc1nnc(SCC(=O)NC2CC2)n1-c1ccccc1` was greater than 43.3 µg/mL.

On to `Cc1ccc(C)c(NC(=O)Cn2cc(C(=O)C3CC3)c3ccccc32)c1`, for which the solubility (kinetic) is less than 0.4 µg/mL. The value for `Cc1ccc(OCC(=O)N2CC(C)OC(C)C2)c([N+](=O)[O-])n1` (stereo not given) was greater than 46.4 µg/mL; that for `c1ccc(N2CCOCCOCCOCCOCCOCC2)cc1` was greater than 50.9 µg/mL; that for `CCCOc1cccc(C(=O)NCCNC(=O)c2ccc(C)nc2)c1` was greater than 51.2 µg/mL. `O=c1oc2ccccc2n1Cc1cccc(F)c1`: the kinetic solubility came to 8.3 µg/mL (≈ 34.1 µM). Next, `CCn1c(C)nc2cc(S(=O)(=O)Nc3ccc(C)cc3)ccc21`: greater than 49.4 µg/mL; `CN1CCN(CCc2nc3cc(NC(=O)c4ccco4)ccc3n2C)CC1`: greater than 55.1 µg/mL; `CC(C)(C)NC(=O)C(=O)NCc1ccccn1`: greater than 35.3 µg/mL.

With `COc1ccc2c(c1)C(=O)C(=O)N2CC1COc2ccccc2O1` (stereo not given), the kinetic solubility was found to be 1.7 µg/mL (≈ 5.23 µM). The value for `CNC(=S)N(Cc1ccccc1)Cc1cccnc1` was 39 µg/mL (≈ 144 µM); that for `O=C(CSc1ccccc1F)NCCCN1CCCC1=O` was greater than 46.6 µg/mL; that for `O=C(Cn1c(=S)[nH]c2ccccc2c1=O)N1CCc2ccccc2C1` was 3.9 µg/mL (≈ 11.1 µM). The value for `O=C(CN1C(=O)NC2(CCCCC2)C1=O)NCCc1ccc(Cl)cc1Cl` was greater than 59.7 µg/mL; that for `N#Cc1c(N2CCN(c3ccc(F)cc3)CC2)nc(N)c2c(N)nc3c(c12)CC(=O)N3C1CC1` was 0.8 µg/mL (≈ 1.74 µM); that for `COc1ccc(-c2onc3ccc(C(=O)/C=C/N(C)C)cc23)cc1` was 9.3 µg/mL (≈ 28.8 µM).

As for `O=C(O)C(=O)O.c1ccc2c(CCNC3CCCCC3)c[nH]c2c1`, the kinetic solubility was greater than 49.9 µg/mL.

The compound `O=C(C1=C(O)C(=O)N(CC2CCCO2)C1c1ccccc1)c1ccco1` (stereo not given) yielded a solubility (kinetic) of 41.8 µg/mL (≈ 118 µM). The value for `O=C(CSc1nnc(C2CC2)n1C1CC1)c1ccccc1F` was greater than 47.6 µg/mL; that for `COc1ccccc1CCC(=O)NCCCn1ccc2ccccc21` was 27.2 µg/mL (≈ 80.8 µM). The value for `COc1cc(OC)cc(C(=O)NCC(=O)OC2CCCCC2=O)c1` (stereo not given) was greater than 50.3 µg/mL; that for `CC1=C(C(=O)OC2CCCCC2)C(c2ccc(F)cc2)NC(=O)N1` (stereo not given) was 31.2 µg/mL (≈ 93.9 µM). The value for `COC(=O)c1nn(-c2ccc(OC)cc2)ccc1=O` was greater than 39 µg/mL. In turn, `CCC(C)NC(=O)[C@@H]1CSC2c3ccccc3C(=O)N21` (stereo not given in full) displayed a kinetic solubility greater than 43.6 µg/mL.
